Values quoted from earlier work, collected in US12100485B2, “Machine learning and molecular simulation based methods for enhancing binding and activity prediction” (The Board of Trustees of the Leland Stanford Junior …, priority 2018, dated 2024).

Test system: μOR
Settings: not given

With `COc1ccc(CN(C(=O)[C@@H](N)Cc2c(C)cc(C(N)=O)cc2C)[C@@H](C)c2ncc(-c3ccccc3)[nH]2)cc1C(=O)O` [eluxadoline] as the molecule, how does the Action read?
The Action was “agonist”.

For `COCCN1CC[C@]23c4c5ccc(O)c4O[C@H]2C(=O)CC[C@@]3(O)[C@H]1C5` [semorphone], which Action is on record?
The Action was “agonist”.

With `CC[C@H](OC(C)=O)C(C[C@H](C)N(C)C)(c1ccccc1)c1ccccc1` [levacetylmethadol] as the molecule, how does the Action read?
The Action was “agonist”.

Which Action does the source give for `CN(C)[C@H](Cc1ccccc1)c1ccccc1` [lefetamine] here?
Its Action is “agonist”.

With `CCC(OC(C)=O)C(CC(C)NC)(c1ccccc1)c1ccccc1` (centres unmarked) [noracymethadol] as the molecule, how does the Action read?
Its Action is “agonist”.

Which Action does the source give for `CC(=O)OC1(c2ccccc2)CCN(CCc2ccccc2)CC1` [pepap] here?
Its Action is “agonist”.

Which Action does the source give for hemorphin-4 here?
Its Action is “agonist”.

For `CCC(=O)C(CC(C)N1CCCCC1)(c1ccccc1)c1ccccc1` (centres unmarked) [dipipanone], which Action is on record?
Its Action is “agonist”.

With `CN1CC[C@]23c4c5ccc(O)c4O[C@H]2[C@@H](O)CC[C@@]3(O)[C@H]1C5` [hydromorphinol] as the molecule, how does the Action read?
Its Action is “agonist”.

With `CCOC(=O)C1(c2ccccc2)CCN(CCc2ccccc2)CC1` [pheneridine] as the molecule, how does the Action read?
Its Action is “agonist”.

Which Action does the source give for `Oc1ccc2c3c1O[C@H]1[C@H](F)CC[C@@]4(O)[C@@H](C2)N(CC2CC2)CC[C@]314` [cyclofoxy] here?
Its Action is “antagonist”.

For `CN1CC[C@]23c4c5ccc(O)c4O[C@H]2C(=O)C=C[C@H]3[C@H]1C5` [morphinone], which Action is on record?
Its Action is “agonist”.

For `C=CCN1CC[C@]23c4c5ccc(O)c4O[C@H]2/C(=N\N)CC[C@@]3(O)[C@H]1C5` [naloxazone], which Action is on record?
The Action was “Antagonists”.

With `CN1CC[C@]23c4c5ccc(O)c4O[C@H]2/C(=N\N)CC[C@@]3(O)[C@H]1C5` [oxymorphazone] as the molecule, how does the Action read?
Its Action is “agonist”.

Which Action does the source give for `COc1cccc2c1[C@]13CCN(CC4CC4)[C@H](C2)[C@]1(OC)CCC(=O)C3` [cyprodime] here?
The Action was “antagonist”.

Which Action does the source give for `COc1ccsc1CNCC[C@@]1(c2ccccn2)CCOC2(CCCC2)C1` [oliceridine] here?
Its Action is “agonist”.

For `O=C(/C=C/c1ccc(Cl)cc1)N[C@@]12CCC(=O)[C@@H]3Oc4c(O)ccc5c4[C@@]31CCN(CC1CC1)[C@@H]2C5` [clocinnamox], which Action is on record?
Its Action is “antagonist”.

With `C[C@H]1CN(CC[C@H](O)C2CCCCC2)CC[C@@]1(C)c1cccc(O)c1` [ly-255582] as the molecule, how does the Action read?
Its Action is “antagonist”.

Which Action does the source give for `CN1CC[C@]23c4c5ccc(O)c4O[C@H]2[C@@H](O)CC[C@H]3[C@H]1C5` [dihydromorphine] here?
The Action was “agonist”.

Same assay, conditions: known pharmacology, training dataset

Which Action does the source give for `C=CCN1CC[C@]23c4c5ccc(O)c4O[C@H]2C(=O)CC[C@@]3(O)[C@H]1C5` [naloxone] here?
Its Action is “Antagonists”.
